Data as given in PubChem BioAssay AID1918954 (Molecular Pharmacology Branch, DTP, NCI, 2023).
Values joined by “and” are separate entries in the source; they are usually repeats but may differ in a detail not shown here. Identical values can stand only once.

System: MDA-MB-468 complex spheroids with HUVEC/MSC, viability
Test: Anticancer human tumor MDA-MB-468 cell line growth inhibition;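 also: spheroids exposed to agents for seven days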;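 as to viability, T/C: 100% = DMSO vehicle control viability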
Details: for viability, T/C: stronger effect = lower value
Description: Multicellular complex tumor spheroid response to LSD1 Inhibitor Iadademstat in combination with a variety of drugs and investigational agents in selected tumor cell lines
The current study was undertaken to assess response to LSD1 inhibitors in combination with standard-of-care drugs and investigational agents in solid tumor complex spheroid models as well as in the K-562 leukemia. Complex spheroids include a stromal component modeled by human endothelial cells (HUVEC) and fibroblasts modeled by human mesenchymal stem cells (MSCs). The concentration ranges selected for each drug and investigational agent were based upon clinically achievable concentrations if the clinical Cmax of the agent was known.
Compounds. The drugs and investigational agents used in this study are listed on Table 1. All of the agents used, including staurosporine (NSC755774) and gemcitabine (NSC613327), were obtained from the Developmental Therapeutics Program, NCI. FDA-approved anticancer drugs are available from the NCI at http://dtp.nci.nih.gov/branches/dscb/oncology_drugset_explanation.html. Drugs and investigational agents were >95% pure by proton nuclear magnetic resonance (NMR) and liquid chromatography/mass spectrometry (LC/MS). Stock solutions were prepared at 400x in DMSO, stored at -70 degrees C, and diluted in fresh medium prior to their use. The final concentration of DMSO in cell culture wells never exceeded 0.25% (v/v). The FDA-approved anticancer drug set is available from the Developmental Therapeutics Program at https://dtp.cancer.gov/organization/dscb/obtaining/available_plates.htm. All drugs and investigational agents were tested over a range starting from a high concentration at or near the clinical Cmax and decreasing in half-log increments. If the clinical Cmax for an agent had not been determined, the highest concentration tested was 10 microM.
Cell Lines. The patient-derived cancer cell (PDC) lines: 292921-168-R-J2-PDC, K24384-001-R-PDC, and 521955-158-R2-J5-PDC pancreatic carcinomas, 556581-035-R-J1 ovarian carcinoma, 324938-238-R-J1-PDC, 855422-203-R-J1-PDC and 883617-216-R-J1-PDC urothelial bladder carcinomas, 743489-274-T-PDC renal cell carcinoma, 138582-R-J1 Merkel cell tumor, K60290-347-R-J1 and K57222-313-R-J1-PDC glioblastomas, 653999-131-R-J2-PDC, LG0703-F948-PDC, and 349418-098-R-PDC non-small cell lung carcinomas, 885512-296-R-J2-PDC, 171881-019-R-J1-PDC breast carcinomas and 186277-243-T-J2-PDC and 233499-124-R-J2-PDC colon carcinomas were obtained from the NCI Patient-Derived Models Repository (PDMR, https://pdmr.cancer.gov). The established cell lines NCI/ADR-RES (RRID:CVCL_14520 and OVCAR-5 (RRID:CVCL_1628) ovarian carcinomas, 786-O (RRID:CVCL_1051) and A498 (RRID:CVCL_A498) renal cell carcinoma, NCI-H211 (ATCC, cat. CRL-5824; RRID:CVCL_1529), NCI-H196 (ATCC, cat. CRL-5823, RRID:CVCL_1509), SW 1271 (ATCC, cat. CRL-2177, RRID:CVCL_1716) and NCI-H1876 (ATCC, cat. CRL-5902, RRID:CVCL_1503) small cell lung carcinomas, MDA-MB-231 (RRID:CVCL_0062) and MDA-MB-468 (RRID:CVCL_0419)breast carcinomas (10-12). Pooled donor human umbilical vein endothelial cells (HUVEC, Lonza, cat. CC-2519) and human mesenchymal stem cells (hMSC, Lonza, cat. PT-2501) were purchased from Lonza (Walkersville, MD).
Cell Culture. All cells were maintained in an incubator at 37 degrees C and 5% CO2 with 95% humidity. The PDC lines were cultured according to standard operating procedures established by the NCI PDMR (https://pdmr.cancer.gov). Briefly all PDCs were thawed and cultured in Matrigel-coated flasks prepared with a working solution of 1X Ham's F-12 nutrient mix, without supplementation (Invitrogen, Waltham, MA, cat. 11765054), 100 U/mL penicillin-streptomycin (Invitrogen, cat. 15140122), and 2.5% Matrigel (Corning Inc., Corning, NY, cat. 354248) for the first three passages. […]

[1] = curve of first compound, second compound 0.1 µM
[2] = curve of first compound, second compound 0.316 µM
[3] = curve of first compound, second compound 1 µM
[4] = curve of first compound, second compound 3.16 µM
[5] = curve of first compound, second compound 10 µM
[6] = second compound 0.1 µM, first compound 0.00949 µM
[7] = second compound 0.1 µM, first compound 0.03 µM
[8] = second compound 0.1 µM, first compound 0.0949 µM
[9] = second compound 0.1 µM, first compound 0.3 µM
[10] = second compound 0.1 µM, first compound 0.949 µM
[11] = second compound 0.1 µM, first compound 3 µM
[12] = second compound 0.316 µM, first compound 0.00949 µM
[13] = second compound 0.316 µM, first compound 0.03 µM
[14] = second compound 0.316 µM, first compound 0.0949 µM
[15] = second compound 0.316 µM, first compound 0.3 µM
[16] = second compound 0.316 µM, first compound 0.949 µM
[17] = second compound 0.316 µM, first compound 3 µM
[18] = second compound 1 µM, first compound 0.00949 µM
[19] = second compound 1 µM, first compound 0.03 µM
[20] = second compound 1 µM, first compound 0.0949 µM
[21] = second compound 1 µM, first compound 0.3 µM
[22] = second compound 1 µM, first compound 0.949 µM
[23] = second compound 1 µM, first compound 3 µM
[24] = second compound 3.16 µM, first compound 0.00949 µM
[25] = second compound 3.16 µM, first compound 0.03 µM
[26] = second compound 3.16 µM, first compound 0.0949 µM
[27] = second compound 3.16 µM, first compound 0.3 µM
[28] = second compound 3.16 µM, first compound 0.949 µM
[29] = second compound 3.16 µM, first compound 3 µM
[30] = second compound 10 µM, first compound 0.00949 µM
[31] = second compound 10 µM, first compound 0.03 µM
[32] = second compound 10 µM, first compound 0.0949 µM
[33] = second compound 10 µM, first compound 0.3 µM
[34] = second compound 10 µM, first compound 0.949 µM
[35] = second compound 10 µM, first compound 3 µM

Row | Compound | IC50 [1] | IC50 [2] | IC50 [3] | IC50 [4] | IC50 [5] | viability, T/C [6] | viability, T/C [7] | viability, T/C [8] | viability, T/C [9] | viability, T/C [10] | viability, T/C [11] | viability, T/C [12] | viability, T/C [13] | viability, T/C [14] | viability, T/C [15] | viability, T/C [16] | viability, T/C [17] | viability, T/C [18] | viability, T/C [19] | viability, T/C [20] | further results
1 | CCN(c1cc(-c2ccc(CN3CCOCC3)cc2)cc(C(=O)NCc2c(C)cc(C)[nH]c2=O)c1C)C1CCOCC1 + NC1CCC(NC2CC2c2ccccc2)CC1 | > 3000 nM | > 3000 nM | > 3000 nM | > 3000 nM | > 3000 nM | 107% | 96% | 100% | 88.1% | 85.5% | 83% | 99.7% | 102% | 96.7% | 102% | 88.6% | 91.9% | 87% | 92.3% | 95.7% | viability, T/C [21]: 87.4%; viability, T/C [22]: 86%; viability, T/C [23]: 74.9%; viability, T/C [24]: 86.3%; viability, T/C [25]: 76.8%; viability, T/C [26]: 97.8%; viability, T/C [27]: 99.9%; viability, T/C [28]: 77.4%; viability, T/C [29]: 88.5%; viability, T/C [30]: 67.2%; viability, T/C [31]: 72.2%; viability, T/C [32]: 66.8%; viability, T/C [33]: 74.5%; viability, T/C [34]: 75.8%; viability, T/C [35]: 63.4%
2 | COc1ccc([C@@H](O)c2cc(-c3ncnc4cc(N5CCOCC5)ccc34)c(F)cc2Cl)nn1 | – | – | – | – | – | – | – | – | – | – | – | – | – | – | – | – | – | – | – | – | viability, T/C (compound 0.0316 µM): 91.7% and 90.3%; viability, T/C (compound 0.1 µM): 86.8% and 90.4%; viability, T/C (compound 0.316 µM): 82.5% and 71.8%; viability, T/C (compound 1 µM): 58.3% and 51%; viability, T/C (compound 3.16 µM): 32.1% and 29.9%; viability, T/C (compound 10 µM): 14% and 6.59%; IC50 (curve of compound): 1480 nM and 1130 nM
3 | NS(=O)(=O)OCC1CC(n2ccc3c(NC4CCc5ccccc54)ncnc32)CC1O (configuration not stated) + NC1CCC(NC2CC2c2ccccc2)CC1 | 24.5 nM | 28 nM | 27.6 nM | 20.6 nM | < 9.49 nM | 74.4% | 45% | 16.9% | 9.63% | 6.43% | 4.54% | 75.9% | 48.4% | 17.9% | 8.22% | 6.34% | 4.71% | 66% | 48.9% | 14.8% | viability, T/C [21]: 9.7%; viability, T/C [22]: 7.19%; viability, T/C [23]: 4.84%; viability, T/C [24]: 69.5%; viability, T/C [25]: 40.7%; viability, T/C [26]: 16.4%; viability, T/C [27]: 8.71%; viability, T/C [28]: 6.1%; viability, T/C [29]: 4.26%; viability, T/C [30]: 46.8%; viability, T/C [31]: 27%; viability, T/C [32]: 11.4%; viability, T/C [33]: 5.55%; viability, T/C [34]: 4.09%; viability, T/C [35]: 3.17%
